Data from patent US12576155B2, “Senolytic and antiinflammatory prodrugs and methods of use thereof” (priority 2019, dated 2026).

Tests used:
p38 MAPK = test: Western blotting of phos-p38 MAPK in senescent cells; format: cell-based, mouse; conditions: 0.5 μM SSK1, after 36 hours of treatment
Description: Senescent NBF cells were plated and incubated overnight at 37° C. The cells were treated with 0.05 μM gemcitabine or 0.5 μM SSK1 prodrug for the indicated time. Before harvest, cells were washed twice with pre-cooled PBS buffer. Total protein was extracted with lysis buffer (50 mM Tris-HCl (pH 7.5), 137 mM sodium chloride, 1 mM EDTA, 1% Nonidet P-40, 10% glycerol, 0.1 mM sodium orthovanadate, 10 mM sodium pyrophosphate, 20 mM β-glycerophosphate, 50 mM sodium fluoride, 1 mM phenylmethylsulfonyl fluoride), and the protein concentrations were normalized using the BCA Protein Assay Kit (Pierce). Protein samples were mixed with protein loading buffer and incubated at 95° C. for 5 min. Western blotting was performed by using the following antibodies: phospho-specific p38 MAPK (Thr180/Tyr182) (Cell Signaling Technology, CST, catalog number 4511) and p38 (CST, catalog number 8690); phospho-histone H2A.X (Ser139) (CST, catalog number 9718) and histone H2A.X (CST, catalog number 7631). The β-tubulin protein level was also determined as the loading control by using the β-tubulin antibody (CST, catalog number 2128).

[1] = test system: senescent human umbilical vein endothelial cells (HUVECs); test: Cell viability, senescent and non-senescent HUVECs; format: cell-based; conditions: replication-induced senescent vs non-senescent HUVECs; increasing doses
Source text: For replication-induced senescence, cells were passaged until they lost the ability to proliferate and became senescent. NBFs were used as senescent cells after approximately 8-9 passages or 12 population doublings. HEFs were used after approximately 35 passages or 50 population doublings. HUVECs were senescent after approximately 18 passages or 24 population doublings.
To test the viability of senescent and non-senescent cells treated with SSK1, cells were stained with a mixture of Hoechst 33342 and propidium iodide (PI) (CA1120, Solarbio) to distinguish living and dead cells. After treatment with the small molecules, the cell culture medium was removed, and the cells were washed once with PBS. Then, the cells were stained according to the manufacturer's protocol, where the final concentrations of Hoechst 33342 and PI were 5 μg/ml and 2 μg/ml in PBS buffer. The plate was incubated at 4° C. for 30 min and observed on a fluorescence microscope or automatic cell imaging system. Viable cells were quantified using a MD Image Xpress Micro XL (Molecular Devices).

[2] = test system: senescent mouse fibroblasts induced by ionizing irradiation, oncogene overexpression, or genotoxic stress (etoposide treatment); test: Cell viability, oncogene-, etoposide- and irradiation-induced senescent MEFs; format: cell-based; conditions: oncogene- (Kras), etoposide- and irradiation- (10 Gy) induced senescent MEFs vs non-senescent; increasing doses

CC(=O)OCC1O[C@@H](Oc2ccc(COC(=O)Nc3ccn([C@@H]4O[C@H](CO)C(O)C4(F)F)c(=O)n3)cc2[N+](=O)[O-])C(OC(C)=O)C(OC(C)=O)[C@H]1OC(C)=O (stereo partly drawn) [SSK1]
State of p38 MAPK (phosphorylation) (p38 MAPK): activated p38 MAPK by phosphorylation | Selective killing of senescent cells (viability) [1]: selectively killed by SSK1 | Selective killing of senescent cells (viable cells) [2]: selectively killed by SSK1, while non-senescent cells were largely unaffected
